Assay results taken from patent US20260070887A1 (Shenzhen Zhongge Biological Technology Co., Ltd., priority 2022, published 2026).
Like-named read-outs stand apart in the source and are kept apart here.

Assays:
OVCAR-3 cells = assay: OVCAR-3 cell proliferation (Cell Titer-Glo, 10 days); format: cell-based, human
Experimental: The inhibitory effect on the KIF18A target by the compounds of the present disclosure was evaluated by testing the inhibitory effect on proliferation of OVCAR-3 cells by the compounds of the present disclosure.
The following method was used to determine the effect of the compounds of the present disclosure on the proliferation of human ovarian cancer cells Ovcar-3 (HTB-161, ATCC). Cells were cultured in RPMI-1640 complete medium containing 20% fetal bovine serum, 0.01 mg/mL bovine insulin, 100 U penicillin, and 100 μg/mL streptomycin. The Promega kit Cell Titer-Glo (Cat. No. G7572) was used in this method for test.
For specific steps, reference was made to the kit instructions, and the procedure was outlined below: Test compounds were dissolved in DMSO to prepare a 10 mM stock solution, which was diluted at the predetermined test concentrations, and the test compounds at different concentrations were added to a 384-well cell test plate using ECHO. In the plate pre-added with the test compounds, 400 OVCAR-3 cells in the logarithmic growth phase were seeded per well, ensuring the final concentration of the test compounds in the reaction system ranged between 0.12 nM and 10 μM. The co-culture was maintained in a cell culture incubator for 10 days. Before testing, the cell culture plate was equilibrated for 10 minutes at room temperature, 25 μL of Cell Titer-Glo was added to each well, and the mixture was shaken and mixed well and let stand for 5 minutes. The luminescence values for samples in various wells were read using a microplate reader in Luminescence mode.
The percentage of inhibition of cell proliferation by the test compound at each concentration was calculated by comparing with the values of the control group (0.1% DMSO). The IC50 values of the compounds were obtained by concentration-inhibition rate nonlinear regression analysis of the test compounds using GraphPad Prism 9.

KIF18A = KIF18A (Homo sapiens (Human), UniProt Q8NI77); assay: KIF18A ATPase activity under tubulin stimulation (ADP-Glo assay); format: biochemical; conditions: KIF18A 30 nM, ATP 150 μM, pig microtubules
KIF18A, sequence (Q8NI77 whole entry): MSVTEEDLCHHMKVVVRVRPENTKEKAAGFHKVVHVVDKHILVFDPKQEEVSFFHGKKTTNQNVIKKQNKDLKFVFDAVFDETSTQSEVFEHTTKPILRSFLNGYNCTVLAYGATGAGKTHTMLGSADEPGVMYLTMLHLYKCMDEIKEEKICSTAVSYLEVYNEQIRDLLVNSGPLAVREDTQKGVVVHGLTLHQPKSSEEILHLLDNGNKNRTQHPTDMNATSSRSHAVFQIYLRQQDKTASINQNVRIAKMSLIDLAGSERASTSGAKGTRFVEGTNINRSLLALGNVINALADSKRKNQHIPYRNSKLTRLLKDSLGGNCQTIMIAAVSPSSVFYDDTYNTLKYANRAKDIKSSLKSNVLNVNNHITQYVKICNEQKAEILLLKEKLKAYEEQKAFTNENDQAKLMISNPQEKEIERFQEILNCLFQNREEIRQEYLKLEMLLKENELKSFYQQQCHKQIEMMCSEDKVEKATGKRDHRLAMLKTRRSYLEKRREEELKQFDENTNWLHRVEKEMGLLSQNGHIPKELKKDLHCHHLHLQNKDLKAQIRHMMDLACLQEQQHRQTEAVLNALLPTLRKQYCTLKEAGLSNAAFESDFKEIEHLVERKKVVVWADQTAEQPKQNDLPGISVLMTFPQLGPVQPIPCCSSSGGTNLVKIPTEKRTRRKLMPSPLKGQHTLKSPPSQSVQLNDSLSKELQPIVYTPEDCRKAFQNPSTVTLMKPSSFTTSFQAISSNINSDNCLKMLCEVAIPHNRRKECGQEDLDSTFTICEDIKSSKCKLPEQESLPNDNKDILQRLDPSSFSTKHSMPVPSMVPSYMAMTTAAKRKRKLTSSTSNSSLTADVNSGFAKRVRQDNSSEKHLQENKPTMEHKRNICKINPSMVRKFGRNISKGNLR
KIF18A, sequence (P02550 whole entry partner): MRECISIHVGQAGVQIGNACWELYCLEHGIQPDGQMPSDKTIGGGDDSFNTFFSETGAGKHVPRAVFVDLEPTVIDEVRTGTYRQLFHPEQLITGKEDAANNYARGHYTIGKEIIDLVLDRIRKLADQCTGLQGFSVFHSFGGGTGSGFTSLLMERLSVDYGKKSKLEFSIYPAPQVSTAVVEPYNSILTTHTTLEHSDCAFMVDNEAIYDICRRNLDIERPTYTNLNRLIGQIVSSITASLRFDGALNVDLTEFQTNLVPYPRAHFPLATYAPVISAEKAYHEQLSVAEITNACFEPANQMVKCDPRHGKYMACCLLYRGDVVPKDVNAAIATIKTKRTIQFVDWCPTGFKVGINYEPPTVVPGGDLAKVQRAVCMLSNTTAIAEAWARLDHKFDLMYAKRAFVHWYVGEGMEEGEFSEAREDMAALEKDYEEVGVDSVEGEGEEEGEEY
KIF18A, sequence (P02554 whole entry partner): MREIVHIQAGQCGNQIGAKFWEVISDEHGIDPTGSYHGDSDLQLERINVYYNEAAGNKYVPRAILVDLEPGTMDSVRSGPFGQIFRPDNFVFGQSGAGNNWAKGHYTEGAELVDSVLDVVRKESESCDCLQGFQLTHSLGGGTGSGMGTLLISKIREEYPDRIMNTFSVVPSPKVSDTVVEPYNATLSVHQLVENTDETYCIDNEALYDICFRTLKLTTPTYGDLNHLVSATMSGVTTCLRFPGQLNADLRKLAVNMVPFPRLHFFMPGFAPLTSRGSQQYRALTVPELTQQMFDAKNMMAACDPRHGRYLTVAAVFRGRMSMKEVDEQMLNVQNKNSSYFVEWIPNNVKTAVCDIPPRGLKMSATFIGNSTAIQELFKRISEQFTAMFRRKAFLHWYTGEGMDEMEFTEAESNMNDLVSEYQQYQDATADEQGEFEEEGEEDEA
Experimental: This experiment assesses the inhibitory effect of the compounds of the present disclosure on the KIF18A target according to the IC50 values by measuring the KIF18A ATPase activity under tubulin stimulation with the presence of the compounds.
• 1. Preparation of 30 mL of reaction buffer: • (1) 450 μL 1M Tris-HCl (pH=7.5)+300 μL 1M MgCl2+30 μL 10% Pluronic F-68 (ThermoFisher, 24040032-100 ml); • (2) adjusting pH to 7.5, and adding water to adjust the volume to 30 mL. • 2. Preparation of a 5 mg/mL pig microtubule (Microtubules; MT) (Cytoskeleton Inc, MT002) stock solution: • (1) 10 mL PM buffer=150 μL 1 M PIPES (pH 7.0)+20 μL 0.5 mM MgCl2+100 μL 2 mM Taxol (Cytoskeleton Inc, TXD01)+9730 μL water. • (2) MT ([…]): Adding 100 μL PM buffer to prepare a 5 mg/mL stock solution. Keeping the MT (Cytoskeleton Inc, MT002) at room temperature for 10-15 minutes, gently mixing and storing same at −80° C. • 3. Preparation of 2 mL of kinase buffer: 2 mL reaction buffer+1 μL 2 mM Taxol (Cytoskeleton Inc, TXD01)+12 μL 5 mg/mL MT (Cytoskeleton Inc, MT002). • 4. Preparation of 2×KIF18A (30 nM) (ChemPartner, CPB-P22-31645) working solution: 2.4 μL 10 μM KIF18A (ChemPartner, CPB-P22-31645)+800 μL 1× kinase buffer. • 5. Preparation of 2×ATP (150 μM) (Promega, G9101) working solution: 12 μL 10 mM ATP+800 μL 1× kinase buffer. • 6. 25 nL of compound was transferred to a 384-well plate using Echo650. • 7. 2.5 μL of 2×KIF18A from Step 4 (final concentration of 30 nM) was added to the 384-well plate and the plate was incubated at 25° C. for 15 minutes. • 8. 2.5 μL of 2×ATP from Step 5 (final concentration of 150 μM) was added to the 384-well plate and the plate was incubated at 25° C. for 15 minutes. • 9. 5 μL ADP-Glo™ Reagent (Promega, G9101) was added to the 384-well plate and the plate was incubated at 25° C. for 40 minutes. • 10. 10 μL of kinase detection reagent (Promega, G9101) was added to the 384-well plate and the plate was incubated at 25° C. for 40 minutes. • 11. Luminescence values were measured using the EnVision Xcite Multilabel Reader (PerkinElmer, 2105-0020).

Structure (SMILES) | IC50 (KIF18A) | IC50 (OVCAR-3 cells; Homo sapiens, OVCAR-3, 240 h) | IC50 (OVCAR-3 cells)
CCS(=O)(=O)Nc1ccc(C(=O)Nc2cccc3c2cc2n3CCC(F)(F)C2O)c(N2CCC3(CC2)CC3)c1 (stereo not shown) [Compound 382, N-(8,8-difluoro-9-hydroxy-6,7,8,9-tetrahydropyridino[1,2-a]indol-1-yl)-4-ethyl sulfonamido-2-(6-azaspiro[2.5]octan-6-yl)benzamide] | ≤ 50 nM |  | ≤ 50 nM
O=C(Nc1cccc2c1cc1n2CCC(F)(F)C1O)c1ccc(NS(=O)(=O)CCO)cc1N1CCC(=C(F)F)CC1 (stereo not shown) [Compound 383, N-(8,8-difluoro-9-hydroxy-6,7,8,9-tetrahydropyridino[1,2-a]indol-1-yl)-2-(4-(difluoromethylene)piperidin-1-yl)-4-((2-hydroxyethyl)sulfonamido)benzamide] | ≤ 50 nM | ≤ 50 nM | 
O=C(Nc1cccc2c1cc1n2CCC(F)(F)C1O)c1ccc(NS(=O)(=O)CCO)cc1N1CCC2(CC1)CC2 (stereo not shown) [Compound 384, N-(8,8-difluoro-9-hydroxy-6,7,8,9-tetrahydropyridino[1,2-a]indol-1-yl)-4-((2-hydroxyethyl)sulfonamido)-2-(6-azaspiro[2.5]oct-6-yl)benzamide] | 50 to 500 nM | ≤ 50 nM | 
O=C(Nc1ccc2c(c1)N1CCC(F)(F)CC1CO2)c1ccc(NS(=O)(=O)CCO)cc1N1CCC(=C(F)F)CC1 (stereo not shown) [Compound 399] | 50 to 500 nM | 500 to 5000 nM | 
O=C(Nc1cccc2c1OCC1CC(F)(F)CCN21)c1ccc(NS(=O)(=O)CCO)cc1N1CCC2(CC1)CC2 (stereo not shown) [Compound 400, N-(8,8-difluoro-6,6a,7,8,9,10-hexahydrobenzo[b]pyrido[1,2-d][1,4]oxazin-4-yl)-4-((2-hydroxyethyl)sulfonamido)-2-(6-azaspiro[2.5]oct-6-yl)benzamide] | ≤ 50 nM | 50 to 500 nM | 
O=C(Nc1ccnc2c1cc1n2CCOC1)c1ccc(NS(=O)(=O)CCO)cc1N1CCC(=C(F)F)CC1 [Compound 401, 2-(4-(difluoromethylene)piperidin-1-yl)-N-(8,9-dihydro-6H-pyrido[3′,2′:4,5]pyrrolo[2,1-c][1,4]oxazin-4-yl)-4-((2-hydroxyethyl)sulfonamido)benzamide] | ≤ 50 nM | 50 to 500 nM | 
O=C(Nc1cccc2c1CC1COCCN21)c1ccc(NS(=O)(=O)CCO)cc1N1CCC2(CC1)CC2 (stereo not shown) [Compound 411, 4-((2-hydroxyethyl)sulfonamido)-2-(6-azaspiro[2.5]oct-6-yl)-N-(3,4,10,10-tetrahydro-1H-[1,4]oxazino[4,3-a]indol-9-yl)benzamide] | 50 to 500 nM |  | 50 to 500 nM
COC1c2cc3c(NC(=O)c4ccc(NS(=O)(=O)CCO)cc4N4CCC5(CC4)CC5)ccc(C#N)c3n2CCC1(F)F (stereo not shown) [Compound 428, N-(4-cyano-8,8-difluoro-9-methoxy-6,7,8,9-tetrahydropyridino[1,2-a]indol-1-yl)-4-((2-hydroxyethyl)sulfonamido)-2-(6-azaspiro[2.5]oct-6-yl)benzamide] | 50 to 500 nM | 50 to 500 nM | 
O=C(Nc1cccc2c1CCN2CC1CC1)c1ccc(NS(=O)(=O)CCO)cc1N1CCC2(CC1)CC2 [Example 5, N-(1-(cyclopropylmethyl)indoline-4-(2-hydroxyethyl)sulfonamido)-2-(6-azaspiro[2.5]octan-6-yl)benzamide] | ≤ 50 nM |  | 50 to 500 nM
O=C(Nc1cccc2c1CC1CCCN21)c1ccc(NS(=O)(=O)CCO)cc1N1CCC2(CC1)CC2 (stereo not shown) [Example 130, 4-((2-hydroxyethyl)sulfonamide)-2-(6-azaspiro[2.5]octan-6-yl)-N-(2,3,9,9a-tetrahydro-1H-pyrrolo[1,2a]indol-8-yl)benzamide] | ≤ 50 nM |  | 50 to 500 nM
O=C(Nc1cccc2c1ccn2CC1CC1(F)F)c1ccc(NS(=O)(=O)CCO)cc1N1CCC2(CC1)CC2 (stereo not shown) [Example 286, N-(1-((2,2-difluorocyclopropyl)methyl)-1H-indol-4-yl)-4-((2-hydroxyethyl)sulfonamido)-2-(6-azaspiro[2.5]oct-6-yl)benzamide] | ≤ 50 nM | 50 to 500 nM | 
O=C(Nc1ccc(F)c2c1OCCN2CC1CC1)c1ccc(NS(=O)(=O)CCO)cc1N1CCC2(CC1)CC2 [Example 294, N-(4-(cyclopropylmethyl)-5-fluoro-3,4-dihydro-2H-benzo[b][1,4]oxazin-8-yl)-4-((2-hydroxyethyl)sulfonamido)-2-(6-azaspiro[2.5]oct-6-yl)benzamide] | ≤ 50 nM | 500 to 5000 nM | 
CC1Cn2c(cc3c(NC(=O)c4ccc(NS(=O)(=O)CCO)cc4N4CCC5(CC4)CC5)cccc32)C(C)O1 (stereo not shown) [Example 312, N-(1,3-dimethyl-3,4-dihydro-1H-[1,4]oxazino[4,3-a]indol-9-yl)-4-((2-hydroxyethyl)sulfonamido)-2-(6-azaspiro[2.5]oct-6-yl)benzamide] | 50 to 500 nM | ≤ 50 nM | 

Now from value to compound, other results behind:

IC50 (KIF18A) | IC50 (OVCAR-3 cells; Homo sapiens, OVCAR-3, 240 h) | Structure (SMILES) | IC50 (OVCAR-3 cells)
≤ 50 nM |  | CC1OCCn2c1cc1c(NC(=O)c3ccc(NS(=O)(=O)CCO)cc3N3CCC4(CC3)CC4)cccc12 (stereo not shown) [Compound 311-P2, 4-((2-hydroxyethyl)sulfonamido)-N-(1-methyl-3,4-dihydro-1H-[1,4]oxazinyl[4,3-a]indol-9-yl)-2-(6-azaspiro[2.5]oct-6-yl)benzamide] | ≤ 50 nM
≤ 50 nM |  | O=C(Nc1cccc2c1cc1n2CCC(F)(F)C1)c1ccc(NS(=O)(=O)CCO)cc1N1CCC2(CC1)CC2 [Example 128, 2-(6-azaspiro[2.5]oct-6-yl)-N-(8,8-difluoro-6,7,8,9-tetrahydropyridino[1,2-a]indol-1-yl)-4-{[(2-hydroxyethyl)sulfonamide]}benzamide] | ≤ 50 nM
50 to 500 nM | 500 to 5000 nM | CC(C)(O)Cn1ccc2c(NC(=O)c3ccc(NS(=O)(=O)CCO)cc3N3CCC4(CC3)CC4)cccc21 [Example 279, N-(1-(2-hydroxy-2-methylpropyl)-1H-indol-4-yl)-4-((2-hydroxyethyl)sulfonamido)-2-(6-azaspiro[2.5]oct-6-yl)benzamide] | 
50 to 500 nM | 50 to 500 nM | O=C(Nc1cccc2c1ccn2CC1(F)CC1)c1ccc(NS(=O)(=O)CCO)cc1N1CCC2(CC1)CC2 [Example 283, N-(1-((1-fluorocyclopropyl)methyl)-1H-indol-4-yl)-4-((2-hydroxyethyl)sulfonamido)-2-(6-azaspiro[2.5]oct-6-yl)benzamide] | 
50 to 500 nM | 50 to 500 nM | O=C(Nc1cccc2c1cnn2CC1CC1)c1ccc(NS(=O)(=O)CCO)cc1N1CCC2(CC1)CC2 [Example 287, N-(1-(cyclopropylmethyl)-1H-indazol-4-yl)-4-(2-hydroxyethylsulfonamido)-2-(6-azaspiro[2.5]octan-6-yl)benzamide] | 
50 to 500 nM | 50 to 500 nM | O=C(Nc1cccc2c1cc1n2CC(F)(F)CC1)c1ccc(NS(=O)(=O)CCO)cc1N1CCC2(CC1)CC2 [Example 341, N-(7,7-difluoro-6,7,8,9-tetrahydropyridino[1,2-a]indol-1-yl)-4-((2-hydroxyethyl)sulfonamido)-2-(6-azaspiro[2.5]oct-6-yl)benzamide] | 
≤ 50 nM | 50 to 500 nM | O=C(Nc1cccc2c1cc1n2CCCC1O)c1ccc(NS(=O)(=O)CCO)cc1N1CCC2(CC1)CC2 (stereo not shown) [Example 342, N-(9-hydroxy-6,7,8,9-tetrahydropyridino[1,2-a]indol-1-yl)-4-((2-hydroxyethyl)sulfonamido)-2-(6-azaspiro[2.5]octan-6-yl)benzamide] | 
